Results taken from patent US12123051B2, “Nucleic acid ratio determination” (priority 2017, dated 2024).
≈ marks a conversion by molar mass, not a printed value. Where two headings read alike, the source gives them in different places.

What was measured:
Format in all cases: cell-based
[1] = system: Chlamydia trachomatis strains 1-5; assay: Minimum inhibitory concentration (MIC) of antibiotics, predetermined by standard procedures
Method: After infection, there was no change of media at the 4 h time point. Once in an exponential growth phase, 20 hours PI, cells were treated with a single dose of different antibiotics. […] Strains used for this treatment protocol were Strain 1) serovar D lab strain (UW-3/Cx), Strain 2) serovar L2 wild type lab strain (434/Bu), Strain 3) serovar L2 lab created mutant strain, resistant to trimethoprim, Strain 4) serovar L2 lab created mutant strain, resistant to Spectinomycin and Strain 5) serovar L2 lab created mutant strain, resistant to Rifampicin. MIC for all serovars and each antibiotic was predetermined, using standard procedures documented in literature, and listed in the table below. […] Strains 1, 2, 3 and 4 are also susceptible to rifampicin, whilst strain 5 is resistant to that same antibiotic. Samples were then incubated at 37° C. with 5% CO2 and harvested at 1 hour PT, using SPG buffer and extracted immediately. Two biological replicates were obtained for each condition.

[2] = system: Chlamydia trachomatis strains 1-5 in HEp-2 cells; conditions: 1 hour PT
Method: After infection, there was no change of media at the 4 h time point. Once in an exponential growth phase, 20 hours PI, cells were treated with a single dose of different antibiotics. […] Strains used for this treatment protocol were Strain 1) serovar D lab strain (UW-3/Cx), Strain 2) serovar L2 wild type lab strain (434/Bu), Strain 3) serovar L2 lab created mutant strain, resistant to trimethoprim, Strain 4) serovar L2 lab created mutant strain, resistant to Spectinomycin and Strain 5) serovar L2 lab created mutant strain, resistant to Rifampicin. […] Samples were then incubated at 37° C. with 5% CO2 and harvested at 1 hour PT, using SPG buffer and extracted immediately. Two biological replicates were obtained for each condition.
The following example analyses the susceptibility of bacteria to a given drug, by estimation of the change of GAT levels relative to NED in TNA samples. These were then compared between samples treated with antibiotic and not treated (control). […] Treatment was as described in example 1, Treatment E (1.1.5). To obtain a measure GAT, Chlamydia DNA and RNA was amplified by RT-PCR using primers targeting two different locations of the omp1 gene and its transcripts. To measure NED, another region of Chlamydia DNA was co-amplified in the same RT-PCR using primers targeting a region of genomic DNA which is not transcribed. The levels of GAT and NED were estimated and used to calculate VITA Index. Further to this the VITA Indices of treated and untreated samples were used to calculate the ΔVITA Ratio.
Partzyme oligonucleotides, Reporter substrates and PCR primers used for amplification and detection of GAT1, GAT2 and NED were as per example 9 (9.1, 9.2 and 9.3 respectively). The RT-PCR conditions used were as described in Example 9 (9.5) and reactions contained either 5 μL of TNA template (1/1000 dilution) or no target (dH2O).
(§1) Chlamydia DNA and RNA from 2 GAT regions and one NED region, were co-amplified and detected in single RT-PCR from TNA extracted from chlamydia cultures. These cultures were treated with antibiotic or left untreated (control) at an exponential growth phase and harvested at 1 hour post treatment. […] The ΔCt was calculated as the differences between the Ct values of the NED and GAT1/2 signals.
The following example analyses the susceptibility of bacteria to a given drug, by estimation of the change of GAT levels relative to NED in TNA samples. These were then compared between samples treated with antibiotic and not treated (control). […] To obtain a measure GAT, Chlamydia DNA and RNA was amplified by RT-PCR using primers targeting two different locations of the omp1 gene and its transcripts. To measure NED, another region of Chlamydia DNA was co-amplified in the same RT-PCR using primers targeting a region of genomic DNA which is not transcribed. The levels of GAT and NED were estimated and used to calculate VITA Index. Further to this the VITA Indices of treated and untreated samples were used to calculate the ΔVITA.
as §1, with “antibiotic (Rifampicin)” for “antibiotic”, “(control) during the” for “(control) at an”, “at one” for “at 1”

[3] = system: Chlamydia trachomatis strain 1 and strain 5 in HEp-2 cells; assay: Antibiotic susceptibility testing by VITA PCR, rifampicin, short incubation, Treatment Protocol C; conditions: for ΔVITA Ratio A/B: 0.256 μg/mL; for VITA Index: plus antibiotic 0.256 μg/mL
Method: After infection, there was no change of media at the 4 hour time point, essentially creating an unsynchronised population, which would be more similar to in vivo conditions. Once at an exponential growth phase, 20 hours PI, treatment was applied. This was achieved by replacing the DMEM for each well, with addition of either i) no antibiotic, or ii) antibiotic (0.256 μg/mL of Rifampicin). Samples were then either incubated at 37° C. with 5% CO2, and harvested after 5 minutes PT; or incubated at room temperature and harvested after 15 minutes PT. SPG buffer was used for harvest and TNA was extracted immediately after. Strains used for this treatment protocol were Strain 1) serovar D lab strain (UW-3/Cx), susceptible to rifampicin, and Strain 5) serovar L2 lab created mutant strain, resistant to Rifampicin.
The following example estimates the change of GAT levels relative to NED in TNA samples extracted from HEp-2 cells which had been infected with Chlamydia trachomatis strain 1 and strain 5 (serovar D lab strain and serovar L2 strain resistant to rifampicin respectively). TNA was extracted from cells, which had been either treated with the antibiotic Rifampicin at a concentration of 0.256 μg/mL, or not treated (control), at 20 hours post infection whilst in an exponential growth phase. Treatment was as described in example 1, Treatment C (1.1.3). To obtain a measure GAT, Chlamydia DNA and RNA was amplified by RT-PCR using primers targeting two different locations of the omp1 gene and its transcripts. To measure NED, another region of Chlamydia DNA was co-amplified in the same RT-PCR using primers targeting a region of genomic DNA which is not transcribed. The levels of GAT and NED were estimated and used to calculate VITA Index. Further to this the VITA Indices of treated and untreated samples were used to calculate the ΔVITA Ratio.
The reactions contained either 5 μL of TNA template (1/1000 dilution) or no target (dH2O).
Chlamydia DNA and RNA from 2 regions within the omp1 gene and transcripts (GAT1 and GAT2), and one NED region, were co-amplified and detected in single RT-PCR from TNA extracted from chlamydia cultures. These cultures were treated with antibiotic or left untreated (control) at an exponential growth phase. They were incubated for either 5 minutes at 37° C. (FIG. 7D) or 15 minutes at room temperature (FIG. 7E). […] The results were then compared between no treatment reactions (control) and those treated with antibiotic at each time point (FIGS. 7D-E).

[4] = system: Chlamydia trachomatis (serovar D) in HEp-2 cells; assay: Antibiotic susceptibility testing by VITA PCR, azithromycin, Treatment Protocol B; conditions: Example 7: 0.128 μg/mL at 24 h PI
Method: The levels of GAT and NED were estimated and used to calculate VITA Index.
(§2) The ΔCt was calculated as the differences between the Ct values of the NED and GAT1/2 signals.
To measure NED, another region of Chlamydia DNA was co-amplified in the same RT-PCR using primers targeting a region of genomic DNA which is not transcribed. The levels of GAT and NED were estimated and used to calculate VITA Index.
as §2

[5] = Strain 1, serovar D lab strain (UW-3/Cx)
[6] = Strain 2, serovar L2 wild type lab strain (434/Bu)
[7] = Strain 3, serovar L2 mutant resistant to trimethoprim
[8] = Strain 4, serovar L2 mutant resistant to Spectinomycin
[9] = Strain 5, serovar L2 mutant resistant to Rifampicin
[10] = Resistant strain (strain 5), 5 min incubation PT at 37° C. with 5% CO2
[11] = Resistant strain (strain 5), 15 min incubation PT at room temperature
[12] = Susceptible strain (strain 1), 5 min incubation PT at 37° C. with 5% CO2
[13] = Susceptible strain (strain 1), 15 min incubation PT at room temperature

Compound: CO[C@H]1/C=C/O[C@@]2(C)Oc3c(C)c(O)c4c(O)c(c(/C=N/N5CCN(C)CC5)c(O)c4c3C2=O)NC(=O)/C(C)=C\C=C\[C@H](C)[C@H](O)[C@@H](C)[C@@H](O)[C@@H](C)[C@H](OC(C)=O)[C@@H]1C [Rifampicin]
- Minimum inhibitory concentration (MIC), antibiotic dose [1, 5]: 0.008 µg/mL (≈ 0.00972 µM)
- Minimum inhibitory concentration (MIC), antibiotic dose [1, 6]: 0.004 µg/mL (≈ 0.00486 µM)
- Minimum inhibitory concentration (MIC), antibiotic dose [1, 7]: 0.004 µg/mL (≈ 0.00486 µM)
- Minimum inhibitory concentration (MIC), antibiotic dose [1, 8]: 0.004 µg/mL (≈ 0.00486 µM)
- Minimum inhibitory concentration (MIC), antibiotic dose [1, 9]: 8.192 µg/mL (≈ 9.95 µM)
- ΔVITA Ratio A/B ([2]; Table 13: Strain 1, 0.256 μg/mL): 3.54
- VITA Index ([2]; Table 13: Strain 1, plus antibiotic 0.256 μg/mL): 1.17
- ΔVITA Ratio A/B ([2]; Table 13: Strain 2, 0.256 μg/mL): 2.93
- VITA Index ([2]; Table 13: Strain 2, plus antibiotic 0.256 μg/mL): 1.66
- ΔVITA Ratio A/B ([2]; Table 13: Strain 3, 0.256 μg/mL): 4.70
- VITA Index ([2]; Table 13: Strain 3, plus antibiotic 0.256 μg/mL): 1.58
- ΔVITA Ratio A/B ([2]; Table 13: Strain 4, 0.256 μg/mL): 5.86
- VITA Index ([2]; Table 13: Strain 4, plus antibiotic 0.256 μg/mL): 1.68
- ΔVITA Ratio A/B ([2]; Table 13: Strain 5 (Rifampicin resistant), 0.256 μg/mL): 1.06
- VITA Index ([2]; Table 13: Strain 5 (Rifampicin resistant), plus antibiotic 0.256 μg/mL): 6.71
- ΔVITA Ratio A/B [3, 10]: 1.07
- ΔVITA Ratio A/B [3, 11]: 0.91
- VITA Index [3, 10]: 11.18
- VITA Index [3, 11]: 11.41
- ΔVITA Ratio A/B [3, 12]: 1.90
- ΔVITA Ratio A/B [3, 13]: 1.80
- VITA Index [3, 12]: 4.69
- VITA Index [3, 13]: 4.41

Compound: C[C@H]1c2cccc(O)c2C(=O)C2=C(O)[C@]3(O)C(=O)C(C(N)=O)=C(O)[C@@H](N(C)C)[C@@H]3[C@@H](O)[C@@H]21 [Doxycycline]
- Minimum inhibitory concentration (MIC), antibiotic dose [1, 5]: 0.128 µg/mL (≈ 0.288 µM)
- Minimum inhibitory concentration (MIC), antibiotic dose [1, 6]: 0.064 µg/mL (≈ 0.144 µM)
- Minimum inhibitory concentration (MIC), antibiotic dose [1, 7]: 0.032 µg/mL (≈ 0.072 µM)
- Minimum inhibitory concentration (MIC), antibiotic dose [1, 8]: 0.064 µg/mL (≈ 0.144 µM)
- Minimum inhibitory concentration (MIC), antibiotic dose [1, 9]: 0.064 µg/mL (≈ 0.144 µM)
- ΔVITA Ratio A/B ([2]; Table 12b: Strain 1, 0.256 μg/mL): 1.48
- VITA Index ([2]; Table 12b: Strain 1, plus antibiotic 0.256 μg/mL): 2.80
- ΔVITA Ratio A/B ([2]; Table 12b: Strain 2, 0.256 μg/mL): 1.24
- VITA Index ([2]; Table 12b: Strain 2, plus antibiotic 0.256 μg/mL): 3.92
- ΔVITA Ratio A/B ([2]; Table 12b: Strain 3, 0.256 μg/mL): 1.32
- VITA Index ([2]; Table 12b: Strain 3, plus antibiotic 0.256 μg/mL): 5.64
- ΔVITA Ratio A/B ([2]; Table 12b: Strain 5, 0.256 μg/mL): 1.43
- VITA Index ([2]; Table 12b: Strain 5, plus antibiotic 0.256 μg/mL): 5.01

Compound: CC[C@H]1OC(=O)[C@H](C)[C@@H](O[C@H]2C[C@@](C)(OC)[C@@H](O)[C@H](C)O2)[C@H](C)[C@@H](O[C@@H]2O[C@H](C)C[C@H](N(C)C)[C@H]2O)[C@](C)(O)C[C@@H](C)CN(C)[C@H](C)[C@@H](O)[C@]1(C)O [Azithromycin]
- Minimum inhibitory concentration (MIC), antibiotic dose [1, 5]: 0.032 µg/mL (≈ 0.0427 µM)
- Minimum inhibitory concentration (MIC), antibiotic dose [1, 6]: 0.032 µg/mL (≈ 0.0427 µM)
- Minimum inhibitory concentration (MIC), antibiotic dose [1, 7]: 0.016 µg/mL (≈ 0.0214 µM)
- Minimum inhibitory concentration (MIC), antibiotic dose [1, 8]: 0.016 µg/mL (≈ 0.0214 µM)
- Minimum inhibitory concentration (MIC), antibiotic dose [1, 9]: 0.032 µg/mL (≈ 0.0427 µM)
- Susceptibility according to the MIC analysis ([1]; all strains used): susceptible
- ΔVITA A/B (no antibiotic / plus antibiotic) ([4]; 1 h PT): 3.77
- ΔVITA A/B (no antibiotic / plus antibiotic) ([4]; 6 h PT): 2.12
